Assay [1] deals with Escherichia coli ATCC 10536. Nature of the assay: in vitro activity spectrum, minimal inhibition concentration, Escherichia coli ATCC 10536. The assay is classed as cell-based. The source says:
(§1) | Minimal inhibiton concentration (μg/ml)

For assay [2], the system named is Streptococcus faecalis ATCC 10541. As to the kind of experiment: in vitro activity spectrum, minimal inhibition concentration, Streptococcus faecalis ATCC 10541. The assay is classed as cell-based.
Description: as §1

Assay [3] has as its system Staphylococcus aureus Tour. As to the kind of experiment: in vitro activity spectrum, minimal inhibition concentration, Staphylococcus aureus Tour. It is filed as cell-based.
Description: as §1

Assay [4] deals with Staphylococcus aureus ATCC 6538. Nature of the assay: in vitro activity spectrum, minimal inhibition concentration, Staphylococcus aureus ATCC 6538. The assay is classed as cell-based. Particulars: for MIC: Staphylococcus aureus, read-out: Minimal inhibiton concentration.
Description: as §1

Assay [5] relates to Pseudomonas aeruginosa ATCC 10145. Nature of the assay: in vitro activity spectrum, minimal inhibition concentration, Pseudomonas aeruginosa ATCC 10145. It is filed as cell-based.
Description: as §1

Assay [6] concerns Mycobacterium tub. H37Rv ATCC 9360. Nature of the assay: in vitro activity spectrum, minimal inhibition concentration, Mycobacterium tub. H37Rv ATCC 9360. The assay is classed as cell-based.
Description: as §1

The test system of assay [7] is Staphylococcus aureus Tour rifampicin-resistant. Nature of the assay: in vitro activity spectrum, minimal inhibition concentration, Staphylococcus aureus Tour rifampicin-resistant.
The test system of assay [8] is Proteus vulgaris X 19 H ATCC 881. As to the kind of experiment: in vitro activity spectrum, minimal inhibition concentration, Proteus vulgaris X 19 H ATCC 881. It is filed as cell-based.
Description: as §1

The test system of assay [9] is Streptococcus hemolyticus C 203. As to the kind of experiment: in vitro activity spectrum, minimal inhibition concentration, Streptococcus hemolyticus C 203. The assay is classed as cell-based.
Description: as §1

For assay [10], the system named is Diplococcus pneumoniae UC 41. Nature of the assay: in vitro activity spectrum, minimal inhibition concentration, Diplococcus pneumoniae UC 41. It is filed as cell-based.
Description: as §1

For assay [11], the system named is Staphylococcus aureus. Nature of the assay: experiments on mice injected with Staphylococcus aureus. It is filed as in vivo. The source says: The novel compounds are active also in the laboratory animals injected with Staphylococcus aureus, Escherichia coli. The following table reports the results of representative experiments on mice in comparison with a known natural rifamycin, i.e. rifamycin SV.

Assay [12] deals with Klebsiella pneumoniae ATCC 10031. Nature of the assay: in vitro activity spectrum, minimal inhibition concentration, Klebsiella pneumoniae ATCC 10031. The assay is classed as cell-based.
Description: as §1

Assay [13] has as its system Bacillus Subtilis. Nature of the assay: agar disc inhibition of growth of Bacillus subtilis. It is filed as cell-based. Particulars: Penassay agar pH 7.2, disc of agar carrying a single colony. On the procedure: A suspension of spores of Streptomyces mediterranei ATCC 13685 was treated with N-methyl-N'-nitro-N-nitrosoguanidine at 1 mg/ml in a pH 9.0 tris(hydroxymethyl)aminomethane buffer for 60 minutes at 28° C. The mutagen-treated spores were then washed and plated onto Petri dishes containing Bennett agar. After 14 days incubation at 28° C., the surviving colonies were picked off and examined for their ability to inhibit the growth of Bacillus Subtilis in the following manner: a disc of agar (diameter 4-8 mm) carrying a single colony was transferred onto a Petri disch containing […] agar at pH 7.2 previously seeded at 2% (v/v) with Bacillus Subtilis. […] Three strains were isolated in this way and were originally given our internal code D-2, MM18-6 and M-36. Samples of these microorganisms were deposited with the ATCC where they are identified respectively as Nocardia mediterranea ATCC 31064 Nocardia mediterranea ATCC 31065 and Nocardia mediterranea ATCC 31066.

Converted amounts (≈) assume the structure as drawn. Read-outs that look alike come from different tables or passages of the source.

Consider `COC1C=COC2(C)Oc3c(C)c(O)c4c(c3C2=O)C(=O)C=C(NC(=O)C(CO)=CC=CC(C)C(O)C(C)C(O)C(C)C(OC(C)=O)C1C)C4=O` (stereo not drawn) [Rifamycin R], for which the MIC in [1] (ATCC10536, read-out: Minimal inhibiton concentration) worked out at 50 µg/mL (≈ 70.2 µM); in [2] (Enterococcus faecalis, ATCC10541, read-out: Minimal inhibiton concentration), 0.19 µg/mL (≈ 0.267 µM); in assay [3] (read-out: Minimal inhibiton concentration) it was 0.00235 µg/mL (≈ 0.0033 µM); in assay [4] (ATCC6538, Staphylococcus aureus ATCC 6538 (20% bovine serum)), 0.0047 µg/mL (≈ 0.0066 µM); in assay [4] (ATCC6538, Staphylococcus aureus ATCC 6538), 0.019 µg/mL (≈ 0.0267 µM); in assay [5] (ATCC10145, read-out: Minimal inhibiton concentration), 100 µg/mL (≈ 140 µM). In addition, the MIC in assay [6] (Mycobacterium tuberculosis, read-out: Minimal inhibiton concentration) worked out at 0.1 µg/mL (≈ 0.14 µM); in [7] (Staphylococcus aureus, read-out: Minimal inhibiton concentration) it was 100 µg/mL (≈ 140 µM); in assay [8] (ATCC881, read-out: Minimal inhibiton concentration), 12.5 µg/mL (≈ 17.6 µM); in assay [9] (Streptococcus pyogenes, C203, read-out: Minimal inhibiton concentration), 0.00312 µg/mL (≈ 0.00438 µM); in assay [10] (Streptococcus pneumoniae, UC41, read-out: Minimal inhibiton concentration), 0.00625 µg/mL (≈ 0.00878 µM).
Usually ED50 stands for the dose that gives a 50% effect, or the effect in half of the subjects. For `COC1/C=C\OC2(C)Oc3c(C)c(O)c4c(O)c(c5sc(CO)nc5c4c3C2=O)NC(=O)/C(C)=C/C=C/C(C)C(O)C(C)C(O)C(C)C(OC(C)=O)C1C` (stereo not drawn) [Rifamycin Q], in [11] (s.c.), the ED50 is 8 mg/kg. The Minimal inhibiton concentration was determined as 12.5 µg/mL (≈ 16.3 µM) in assay [1]; 0.312 µg/mL (≈ 0.406 µM) in assay [2]; 0.06 µg/mL (≈ 0.078 µM) in [3]; 0.039 µg/mL (≈ 0.0507 µM) in assay [4] (Staphylococcus aureus ATCC 6538); 0.078 µg/mL (≈ 0.101 µM) in [4] (Staphylococcus aureus ATCC 6538 (20% bovine serum)); 50 µg/mL (≈ 65 µM) in assay [5]. For the same compound, the Minimal inhibiton concentration is 2.5 µg/mL (≈ 3.25 µM) in assay [6]; > 100 µg/mL in [7] (Staphylococcus aureus Tour rifampicin-resistant); 50 µg/mL (≈ 65 µM) in assay [12]; 12.5 µg/mL (≈ 16.3 µM) in assay [8]; 0.019 µg/mL (≈ 0.0247 µM) in assay [9]; 0.039 µg/mL (≈ 0.0507 µM) in [10].
On to `COC1C=COC2(C)Oc3c(C)c(O)c4c(O)c(cc(OCC(=O)O)c4c3C2=O)NC(=O)C(C)=CC=CC(C)C(O)C(C)C(O)C(C)C(OC(C)=O)C1C` (stereo not drawn) [rifamycin B], for which the “inhibition of the growth of Bacillus subtilis” value in assay [13] was “practically inactive”.
With `CO[C@H]1/C=C/O[C@@]2(C)Oc3c(C)c(O)c4c(O)c(cc(O)c4c3C2=O)NC(=O)/C(C)=C\C=C\[C@H](C)[C@H](O)[C@@H](C)[C@@H](O)[C@@H](C)[C@H](OC(C)=O)[C@@H]1C` [rifamycin SV], the ED50 in assay [11] (po, o.s., read-out: ED50) stood at 74 mg/kg; in assay [11] (sc, read-out: ED50), 17 mg/kg.
